# In patent publication EP1123702A1, “ANALGESICS” (Eisai Co., Ltd., priority 1998, dated 2000):
# Legend:
# 5HT1A = molecular target: T1, 5HT1A (Homo sapiens, UniProt P08908); assay: Serotonin (5HT) receptor binding action (RBA; in vitro), 5HT1A; settings: method of JP98/01481 or JP-A 10-281752
# T1 sequence (P08908 1-422): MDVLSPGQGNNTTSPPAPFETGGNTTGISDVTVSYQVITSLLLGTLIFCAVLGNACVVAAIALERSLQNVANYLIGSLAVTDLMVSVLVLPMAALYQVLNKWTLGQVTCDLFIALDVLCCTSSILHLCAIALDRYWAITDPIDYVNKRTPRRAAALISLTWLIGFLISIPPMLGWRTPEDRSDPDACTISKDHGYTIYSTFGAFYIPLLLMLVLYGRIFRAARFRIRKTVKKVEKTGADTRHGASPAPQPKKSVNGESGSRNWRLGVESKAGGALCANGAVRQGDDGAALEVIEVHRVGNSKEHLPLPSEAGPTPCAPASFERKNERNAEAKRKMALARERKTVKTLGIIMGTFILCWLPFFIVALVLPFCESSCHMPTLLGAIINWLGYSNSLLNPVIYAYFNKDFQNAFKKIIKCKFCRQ
# 5HT2 = 5HT2 (Homo sapiens, UniProt P28223); assay: Serotonin (5HT) receptor binding action (RBA; in vitro), 5HT2; settings: method of JP98/01481 or JP-A 10-281752
# writhing behavior = assay: Analgesic action by a writhing method using acetic acid; type: in vivo, Male mice of a ddY strain; settings: sc; statistically minimum effective dose; 0.6% acetic acid ip 15 minutes after the drug, writhing counted for ten minutes; mice
# [1] = Muscle relaxing action (in vivo); settings: method of JP98/01481 or JP-A 10-281752
# Source text: There are also shown a serotonin (5HT) receptor binding action (RBA; in vitro) and a muscle relaxing action (in vivo) measured according to a method described in JP98/01481 or JP-A 10-281752. (In the table, "n.t." means "not tested").
# Chain of 5HT2 (P28223 whole entry, species assumed): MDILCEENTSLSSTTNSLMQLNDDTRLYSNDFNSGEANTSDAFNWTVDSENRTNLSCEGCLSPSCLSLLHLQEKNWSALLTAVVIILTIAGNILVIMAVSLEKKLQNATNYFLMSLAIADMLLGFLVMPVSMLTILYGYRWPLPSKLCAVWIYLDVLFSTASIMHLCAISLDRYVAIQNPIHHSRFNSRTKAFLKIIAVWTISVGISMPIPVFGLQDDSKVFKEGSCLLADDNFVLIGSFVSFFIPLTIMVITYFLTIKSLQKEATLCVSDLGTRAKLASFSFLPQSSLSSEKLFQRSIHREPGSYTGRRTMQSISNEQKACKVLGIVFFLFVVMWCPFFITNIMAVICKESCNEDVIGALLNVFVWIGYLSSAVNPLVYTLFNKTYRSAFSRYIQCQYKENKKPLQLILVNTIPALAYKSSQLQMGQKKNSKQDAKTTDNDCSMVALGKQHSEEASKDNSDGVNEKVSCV
Compound,Ki (5HT1A) [nM],Ki (5HT2) [nM],Analgesic Action (minimum effective dose) (writhing behavior) [mg/kg],Muscle-Relaxing Action (po) [1] [mg/kg],Muscle-Relaxing Action (ip) [1] [mg/kg]
"CCN1CCN(c2nc(-c3ccc(CCCO)c(OC)c3)cc3ccccc23)CC1.Cl [(20), 1-(4-ethylpiperazin-1-yl)-3-(3-methoxy-4-hydroxypropylphenyl)isoquinoline hydrochloride]",7.9,10.9,3,10,–
"CCN1CCN(c2nc(-c3ccc(OCCO)c(C#N)c3)cc3ccccc23)CC1.Cl [(21), 1-(4-ethylpiperazin-1-yl)-3-(3-cyano-4-hydroxyethoxyphenyl)isoquinoline hydrochloride]",13.4,4.5,1,–,10
"CCCS(=O)(=O)NCc1ccc(-c2cc3ccccc3c(N3CCN(CC)CC3)n2)cc1Cl.Cl [(23), 1-(4-ethylpiperazin-1-yl)-3-(3-chloro-4-propylsulfonylaminomethylphenyl)isoquinoline hydrochloride]",0.9,0.7,3,> 30,–
"CCN1CCN(c2nc(-c3ccc(OCC(C)O)cc3)cc3sccc23)CC1.Cl (centres unmarked) [(24), 4-(4-ethylpiperazin-1-yl)-6-[4-(2-hydroxypropoxy)phenyl]thieno[3,2-c]pyridine hydrochloride]",27.9,0.9,1,3,1
"CCN1CCN(c2nc(-c3ccc(OCC(C)(C)O)cc3)cc3sccc23)CC1.Cl [(25), 4-(4-ethylpiperazin-1-yl)-6-[4-(2-hydroxy-2-methylpropoxy)phenyl]thieno[3,2-c]pyridine hydrochloride]",54.9,1.4,10,1,0.3
"CCN1CCN(c2nc(-c3ccc(C(C)O)cc3)cc3sccc23)CC1.O=C(O)C(=O)O (centres unmarked) [(26), 4-(4-ethylpiperazin-1-yl)-6-[4-(1-hydroxyethyl)phenyl]thieno[3,2-c]pyridine oxalate]",15,16.9,1,< 3,–
